Source: ChEMBL document CHEMBL1144577, “1,5-Biaryl pyrrole derivatives as EP1 receptor antagonists. Structure-activity relationships of 6-substituted and 5,6-disubstituted benzoic acid derivatives” (Bioorg Med Chem Lett, 2007)
Values belong to the compound of their own block, whether it stands above or below them.

Columns and labels:
[1] = Intrinsic clearance in monkey liver microsomes; assay type: ADME, Macaca mulatta, Microsome; details: rhesus monkey
[2] = system: Liver microsomes; assay: Intrinsic clearance in human liver microsomes; assay type: ADME, Microsome
[3] = Intrinsic clearance in dog liver microsomes; assay type: ADME, Canis lupus familiaris, Microsome
[4] = molecular target: T1, Prostaglandin E2 receptor EP1 subtype (Homo sapiens, UniProt P34995); assay: Inhibition of human recombinant EP1 receptor expressed in CHO cells by calcium mobilisation assay; assay type: functional, cell-based
T1 sequence (P34995 whole entry): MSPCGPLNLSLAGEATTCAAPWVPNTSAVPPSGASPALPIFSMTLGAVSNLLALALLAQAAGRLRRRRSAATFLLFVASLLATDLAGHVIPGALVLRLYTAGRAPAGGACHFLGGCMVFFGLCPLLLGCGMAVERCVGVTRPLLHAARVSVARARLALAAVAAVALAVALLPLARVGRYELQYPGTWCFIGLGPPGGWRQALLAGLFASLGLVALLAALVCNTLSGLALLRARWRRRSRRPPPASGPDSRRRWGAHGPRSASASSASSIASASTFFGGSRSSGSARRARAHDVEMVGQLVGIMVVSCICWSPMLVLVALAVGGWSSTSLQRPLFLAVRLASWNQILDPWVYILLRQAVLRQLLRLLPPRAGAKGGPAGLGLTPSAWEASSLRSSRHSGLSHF

[5] = molecular target: T2, Prostaglandin E2 receptor EP3 subtype (Homo sapiens, UniProt P43115); assay: Inhibition of human recombinant EP3 receptor expressed in CHO cells by calcium mobilisation assay; assay type: functional, cell-based
T2 sequence (P43115 whole entry): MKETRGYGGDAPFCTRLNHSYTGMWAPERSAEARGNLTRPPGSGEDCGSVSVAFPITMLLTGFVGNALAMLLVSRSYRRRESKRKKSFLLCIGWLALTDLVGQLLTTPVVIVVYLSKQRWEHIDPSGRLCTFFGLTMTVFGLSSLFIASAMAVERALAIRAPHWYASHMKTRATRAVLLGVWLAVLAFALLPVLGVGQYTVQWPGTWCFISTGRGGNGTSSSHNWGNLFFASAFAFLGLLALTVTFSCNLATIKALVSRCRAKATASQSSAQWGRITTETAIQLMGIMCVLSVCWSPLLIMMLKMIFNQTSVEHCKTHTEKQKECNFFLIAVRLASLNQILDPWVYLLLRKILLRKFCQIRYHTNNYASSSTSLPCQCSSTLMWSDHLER

[6] = molecular target: Prostaglandin F2-alpha receptor (Homo sapiens, UniProt P43088); assay: Inhibition of human recombinant FP receptor expressed in CHO cells by calcium mobilisation assay; assay type: functional, cell-based
[7] = molecular target: T3, Thromboxane A2 receptor (Homo sapiens, UniProt P21731); assay: Inhibition of human recombinant TP receptor expressed in CHO cells by calcium mobilisation assay; assay type: functional, cell-based
T3 sequence (P21731 whole entry): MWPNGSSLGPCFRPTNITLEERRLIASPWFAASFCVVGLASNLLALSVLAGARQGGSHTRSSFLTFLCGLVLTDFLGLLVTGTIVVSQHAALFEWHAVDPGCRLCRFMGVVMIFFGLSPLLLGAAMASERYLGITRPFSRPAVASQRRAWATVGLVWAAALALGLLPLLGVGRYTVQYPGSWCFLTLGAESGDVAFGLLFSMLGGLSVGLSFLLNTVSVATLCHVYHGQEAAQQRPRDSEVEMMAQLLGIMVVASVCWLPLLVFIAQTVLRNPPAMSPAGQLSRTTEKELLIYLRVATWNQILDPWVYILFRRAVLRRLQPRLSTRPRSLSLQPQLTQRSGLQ

[8] = molecular target: T4, Prostaglandin E2 receptor EP4 subtype (Homo sapiens, UniProt P35408); assay: Inhibition of human EP4 recombinant receptor expressed in CHO cells by cAMP mobilisation assay; assay type: functional, cell-based
[9] = molecular target: Prostaglandin E2 receptor EP2 subtype (Homo sapiens, UniProt P43116); assay: Inhibition of human recombinant EP2 receptor expressed in CHO cells […] by calcium mobilisation assay; assay type: functional, cell-based
[10] = molecular target: Prostacyclin receptor (Homo sapiens, UniProt P43119); assay: Inhibition of human recombinant IP receptor expressed in CHO cells […] by calcium mobilisation assay; assay type: functional, cell-based
[11] = Drug level in blood of rat FCA model of inflammatory pain at 30 mg/kg, po after 2 hrs; assay type: ADME, organism-based; parameters: dose 30 mg/kg, route oral; details: read-out: Drug uptake
[12] = Drug level in blood of rat FCA model of inflammatory pain at 30 mg/kg, po after 4 hrs; assay type: ADME, organism-based; parameters: dose 30 mg/kg, route oral; details: read-out: Drug uptake
[13] = Drug level in blood of rat FCA model of inflammatory pain at 30 mg/kg, po after 8 hrs; assay type: ADME, organism-based; parameters: dose 30 mg/kg, route oral; details: read-out: Drug uptake
[14] = Drug level in blood of rat FCA model of inflammatory pain at 30 mg/kg, po after 0.25 hrs; assay type: ADME, organism-based; parameters: dose 30 mg/kg, route oral; details: read-out: Drug uptake
[15] = Drug level in blood of rat FCA model of inflammatory pain at 30 mg/kg, po after 1 hr; assay type: ADME, organism-based; parameters: dose 30 mg/kg, route oral; details: read-out: Drug uptake
[16] = Drug level in blood of rat FCA model of inflammatory pain at 30 mg/kg, po after 6 hrs; assay type: ADME, organism-based; parameters: dose 30 mg/kg, route oral; details: read-out: Drug uptake
[17] = Drug level in brain of rat FCA model of inflammatory pain at 30 mg/kg, po after 0.25 hrs; assay type: ADME, organism-based; parameters: dose 30 mg/kg, route oral; details: read-out: Drug uptake
[18] = Drug level in brain of rat FCA model of inflammatory pain at 30 mg/kg, po after 1 hr; assay type: ADME, organism-based; parameters: dose 30 mg/kg, route oral; details: read-out: Drug uptake
[19] = Drug level in brain of rat FCA model of inflammatory pain at 30 mg/kg, po after 2 hrs; assay type: ADME, organism-based; parameters: dose 30 mg/kg, route oral; details: read-out: Drug uptake
[20] = Drug level in brain of rat FCA model of inflammatory pain at 30 mg/kg, po after 4 hrs; assay type: ADME, organism-based; parameters: dose 30 mg/kg, route oral; details: read-out: Drug uptake
[21] = Drug level in brain of rat FCA model of inflammatory pain at 30 mg/kg, po after 6 hrs; assay type: ADME, organism-based; parameters: dose 30 mg/kg, route oral; details: read-out: Drug uptake
[22] = Drug level in brain of rat FCA model of inflammatory pain at 30 mg/kg, po after 8 hrs; assay type: ADME, organism-based; parameters: dose 30 mg/kg, route oral; details: read-out: Drug uptake
[23] = Drug level in brain of rat FCA model of inflammatory pain at 30 mg/kg, po after 24 hrs; assay type: ADME, organism-based; parameters: dose 30 mg/kg, route oral; details: read-out: Drug uptake
[24] = Ratio of drug level in brain to blood in rat FCA model of inflammatory pain at 30 mg/kg, po after 0.25 hrs; assay type: ADME, organism-based; parameters: dose 30 mg/kg, route oral; details: brain and blood
[25] = Ratio of drug level in brain to blood in rat FCA model of inflammatory pain at 30 mg/kg, po after 1 hr; assay type: ADME, organism-based; parameters: dose 30 mg/kg, route oral; details: brain and blood
[26] = Ratio of drug level in brain to blood in rat FCA model of inflammatory pain at 30 mg/kg, po after 2 hrs; assay type: ADME, organism-based; parameters: dose 30 mg/kg, route oral; details: brain and blood
[27] = Ratio of drug level in brain to blood in rat FCA model of inflammatory pain at 30 mg/kg, po after 4 hrs; assay type: ADME, organism-based; parameters: dose 30 mg/kg, route oral; details: brain and blood
[28] = Ratio of drug level in brain to blood in rat FCA model of inflammatory pain at 30 mg/kg, po after 6 hrs; assay type: ADME, organism-based; parameters: dose 30 mg/kg, route oral; details: brain and blood
[29] = Ratio of drug level in brain to blood in rat FCA model of inflammatory pain at 30 mg/kg, po after 8 hrs; assay type: ADME, organism-based; parameters: dose 30 mg/kg, route oral; details: brain and blood
[30] = Ratio of drug level in brain to blood in rat FCA model of inflammatory pain at 30 mg/kg, po after 24 hrs; assay type: ADME, organism-based; parameters: dose 30 mg/kg, route oral; details: brain and blood
[31] = molecular target: T4, Prostaglandin E2 receptor EP4 subtype; assay: Binding affinity to human EP4 receptor expressed in CHO cells; assay type: cell-based
[32] = molecular target: T1, Prostaglandin E2 receptor EP1 subtype; assay: Displacement of [3H]PGE2 from human recombinant EP1 receptor expressed in CHOK1 cell membrane; assay type: cell membranes, CHO-K1
[33] = system: Rattus norvegicus; assay: Normalized AUC (0 to t) in rat at 3 mg/kg, po; assay type: ADME, organism-based; parameters: dose 3 mg/kg, route oral; details: in vivo
[34] = Tmax in rat at 3 mg/kg, po; assay type: ADME, organism-based; parameters: dose 3 mg/kg, route oral; details: in vivo
[35] = Cmax in rat at 3 mg/kg, po; assay type: ADME, organism-based; parameters: dose 3 mg/kg, route oral; details: in vivo
[36] = system: Rattus norvegicus; assay: Reversal of hypersensitivity in FCA rat model of inflammatory pain at 5 mg/kg, po; assay type: functional
[37] = system: Rattus norvegicus; assay: Reversal of hypersensitivity in po dosed FCA rat model of inflammatory pain; assay type: functional
[38] = Blood clearance in rat at 1 mg/kg, iv or 3 mg/kg, po; assay type: ADME, organism-based
[39] = Volume of distribution in rat at 1 mg/kg, iv or 3 mg/kg, po; assay type: ADME, organism-based; details: in vivo, read-out: Vss
[40] = Half life in rat at 1 mg/kg, iv or 3 mg/kg, po; assay type: ADME, organism-based; details: in vivo
[41] = Bioavailability in rat at 3 mg/kg, po; assay type: ADME, organism-based; details: in vivo

T4 sequence (P35408 whole entry): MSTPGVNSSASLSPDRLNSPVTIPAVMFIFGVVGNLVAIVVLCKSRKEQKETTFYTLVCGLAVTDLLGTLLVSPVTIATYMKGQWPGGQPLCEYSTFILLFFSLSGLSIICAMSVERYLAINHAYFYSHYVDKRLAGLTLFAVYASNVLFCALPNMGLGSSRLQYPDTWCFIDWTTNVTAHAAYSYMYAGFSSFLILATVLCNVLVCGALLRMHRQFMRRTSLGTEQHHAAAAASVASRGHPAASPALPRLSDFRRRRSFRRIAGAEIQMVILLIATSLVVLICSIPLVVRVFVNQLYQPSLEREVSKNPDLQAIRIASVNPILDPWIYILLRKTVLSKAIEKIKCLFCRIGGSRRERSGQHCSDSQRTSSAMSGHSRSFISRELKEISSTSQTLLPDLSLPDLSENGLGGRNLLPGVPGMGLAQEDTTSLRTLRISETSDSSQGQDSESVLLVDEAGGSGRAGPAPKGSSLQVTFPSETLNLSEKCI
Chain of Prostacyclin receptor (P43119 whole entry): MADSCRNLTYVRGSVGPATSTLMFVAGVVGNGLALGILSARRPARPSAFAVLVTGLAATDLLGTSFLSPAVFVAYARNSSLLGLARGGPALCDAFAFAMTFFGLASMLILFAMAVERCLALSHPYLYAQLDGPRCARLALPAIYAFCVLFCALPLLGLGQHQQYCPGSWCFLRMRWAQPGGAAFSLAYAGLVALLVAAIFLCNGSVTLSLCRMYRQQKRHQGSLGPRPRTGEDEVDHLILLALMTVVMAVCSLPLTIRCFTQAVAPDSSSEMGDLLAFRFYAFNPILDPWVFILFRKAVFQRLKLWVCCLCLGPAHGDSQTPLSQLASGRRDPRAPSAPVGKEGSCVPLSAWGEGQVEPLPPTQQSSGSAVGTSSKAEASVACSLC
Chain of Prostaglandin F2-alpha receptor (P43088 whole entry): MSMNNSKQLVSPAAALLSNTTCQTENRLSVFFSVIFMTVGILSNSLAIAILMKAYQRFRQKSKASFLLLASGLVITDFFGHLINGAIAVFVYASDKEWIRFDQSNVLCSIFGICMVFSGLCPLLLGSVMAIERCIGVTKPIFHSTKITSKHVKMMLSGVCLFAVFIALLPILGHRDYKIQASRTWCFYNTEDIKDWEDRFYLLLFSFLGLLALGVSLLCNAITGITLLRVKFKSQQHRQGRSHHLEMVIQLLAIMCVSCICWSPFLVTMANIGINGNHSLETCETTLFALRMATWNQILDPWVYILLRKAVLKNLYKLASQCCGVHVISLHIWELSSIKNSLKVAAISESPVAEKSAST
Chain of Prostaglandin E2 receptor EP2 subtype (P43116 whole entry): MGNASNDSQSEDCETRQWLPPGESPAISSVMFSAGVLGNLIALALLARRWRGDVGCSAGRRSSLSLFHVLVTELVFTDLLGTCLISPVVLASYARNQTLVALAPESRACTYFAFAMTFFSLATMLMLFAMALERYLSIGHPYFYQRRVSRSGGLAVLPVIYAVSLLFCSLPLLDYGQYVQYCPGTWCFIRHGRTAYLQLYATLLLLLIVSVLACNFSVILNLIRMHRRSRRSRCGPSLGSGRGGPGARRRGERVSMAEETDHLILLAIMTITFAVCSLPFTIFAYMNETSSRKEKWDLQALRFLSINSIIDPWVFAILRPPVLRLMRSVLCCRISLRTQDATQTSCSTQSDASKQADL

- CL [1]: <= 3.6 ml/min/g
- CL [2]: <= 3.6 ml/min/g
- CL [3]: <= 3.6 ml/min/g
- Ki [4]: 1 nM
- Ki [5]: 501 nM
- IC50 [6]: > 3160 nM
- IC50 [7]: 39.8 nM
- Ki [7]: 15.8 nM
- Ki [8]: 6310 nM
- IC50 [9]: > 3160 nM
- IC50 [10]: > 3160 nM
- concentration at 2 h [11]: 5.93 µM
- concentration at 4 h [12]: 3.56 µM
- concentration at 8 h [13]: 1.6 µM
- concentration at 0.25 h [14]: 7.36 µM
- concentration at 1 h [15]: 10.1 µM
- concentration at 6 h [16]: 2.31 µM
- concentration at 0.25 h [17]: 2.6 µM
- concentration at 1 h [18]: 3.56 µM
- concentration at 2 h [19]: 2.48 µM
- concentration at 4 h [20]: 1.22 µM
- concentration at 6 h [21]: 0.913 µM
- concentration at 8 h [22]: 0.753 µM
- concentration at 24 h [23]: 0.031 µM
- Kp at 0.25 h [24]: 0.4
- Kp at 1 h [25]: 0.4
- Kp at 2 h [26]: 0.4
- Kp at 4 h [27]: 0.4
- Kp at 6 h [28]: 0.4
- Kp at 8 h [29]: 0.4
- Kp at 24 h [30]: 0.5
- IC50 [31]: 15800 nM
- Ki [31]: 7940 nM
- IC50 [32]: 5.01 nM
- AUC/dose [33]: 18 kg·min/L
- Tmax [34]: 30 min
- Cmax [35]: 0.59 µM
- clearance [38]: 1.32 L/h/kg
- Vd [39]: 2.6 L/kg
- half-life [40]: 276 min
- bioavailability [41]: 45%
Compound: Cc1ccc(-n2c(C)ccc2-c2cc(Cl)ccc2OCc2ccc(F)cc2)cc1C(=O)O
- Activity [36]: 75%
- ED50 [37]: 2.5 mg/kg

- IC50 [32]: 79.4 nM
Compound: Cc1ccc(OCc2ccc(F)cc2)c(-c2ccc(C)n2-c2cc(C(=O)O)c3ccccc3c2)c1

- IC50 [32]: 3.16 nM
Compound: Cc1c(N)cc(-n2c(C)ccc2-c2cc(Br)ccc2OCc2ccccc2)cc1C(=O)O

- IC50 [32]: 15.8 nM
Compound: Cc1ccc(OCc2ccc(F)cc2)c(-c2ccc(C)n2-c2cc(N)c(C)c(C(=O)O)c2)c1

- IC50 [32]: 2 nM
- AUC/dose [33]: 39 kg·min/L
- Tmax [34]: 30 min
- Cmax [35]: 2.94 µM
Compound: Cc1c(N)cc(-n2c(C)ccc2-c2cc(Cl)ccc2OCc2ccccc2)cc1C(=O)O
- Activity [36]: 35%

The remaining lines, values behind:

Compound: Cc1ccc(-c2cc(Br)ccc2OCc2ccccc2)n1-c1ccc(OC(F)F)c(C(=O)O)c1
- IC50 [32]: 5.01 nM

Compound: Cc1ccc(-c2cc(Br)ccc2OCc2ccc(F)cc2F)n1-c1ccc(OC(F)F)c(C(=O)O)c1
- IC50 [32]: 0.631 nM

Compound: CC(=O)Nc1ccc(-n2c(C)ccc2-c2cc(Br)ccc2OCc2ccc(F)cc2F)cc1C(=O)O
- IC50 [32]: 0.398 nM

Compound: Cc1ccc(-c2cc(C(F)(F)F)ccc2OCc2ccc(F)cc2)n1-c1ccc(F)c(C(=O)O)c1
- IC50 [32]: 7.94 nM

Compound: Cc1ccc(-c2cc(Br)ccc2OCc2ccccc2)n1-c1cc(C(=O)O)c2ccccc2c1
- IC50 [32]: 12.6 nM

Compound: Cc1ccc(-n2c(C)ccc2-c2cc(Br)ccc2OCc2ccc(F)cc2F)cc1C(=O)O
- IC50 [32]: 1.26 nM

Compound: Cc1ccc(-c2cc(Br)ccc2OCc2ccc(F)cc2F)n1-c1ccc(O)c(C(=O)O)c1
- IC50 [32]: 2 nM

Compound: Cc1ccc(-c2cc(F)ccc2OCc2ccc(F)cc2)n1-c1cc(C(=O)O)c2ccccc2c1
- IC50 [32]: 25.1 nM

Compound: Cc1ccc(-n2c(C)ccc2-c2cc(Cl)ccc2OCc2ccc(F)cc2F)cc1C(=O)O
- IC50 [32]: 2.51 nM

Compound: Cc1ccc(-c2cc(Br)ccc2OCc2ccc(F)cc2F)n1-c1cc(C(=O)O)c2ccccc2c1
- IC50 [32]: 2.51 nM
